The term IC50 denotes the point on the concentration scale where inhibition reaches its midpoint. A high value points to a need for much substance.

The results in this text go back to US9567333B2, “Triazolopyridyl compounds as aldosterone synthase inhibitors” (Merck Sharp & Dohme Corp., priority 2011, dated 2017).

In assay [1] the target is human CYP11B2 (Homo sapiens (Human), UniProt P19099). Briefly: V79-Human-CYP11B2 cell assay. In kind it is cell-based. To be noted: V79 cells stably expressing human CYP11B2; 125 nM 11-deoxycorticosterone substrate; aldosterone by HTRF. On the procedure: (§1) Methods for V79-Human-CYP11B2 and V79-Human-CYP11B1 Assays: V79 cell lines stably expressing the either the human CYP11B2 or the human CYP11B1 enzyme were generated using a standard transfection protocol. V79 cells were transfected with plasmids pTriEx3-Hygro-hCyp11B2 or pTriEx3-Hygro-hCyp11B1 using Lipofectamine2000 reagent. V79 cells that stably express the human CYP11B2 or human CYP11B1 enzyme were selected for and maintained in DMEM supplemented with 10% FBS and 400 µg/mL hygromycin for ˜2 weeks. Single cell clones were generated by infinite dilution in DMEM supplemented with 10% FBS and 400 µg/mL hygromycin until single colonies were obtained. Clones V79-hCYP11B2-CLE9 and V79-hCYP11B1-8CL7, were determined to produce the most aldosterone and cortisol, respectively, and were selected for inhibitor screening. For testing of inhibitors, cells were harvested at 80% confluency with 0.05% Trypsan-EDTA, washed once in PBS, and reconstituted in DMEM+0.1% BSA media at a cell concentration of 600,000 cells/mL for the CYP11B2 assay and 280,000 cells/ml for the CYP11B1 assay. 25 μL of cells were added to a 384 well tissue culture treated plate and mixed with 0.3 μL of inhibitor or DMSO (1% final DMSO concentration) for 1 hour at 37° C., 5% CO2. After pre-incubation with inhibitor, the reaction was initiated by adding 5 μL of substrate (final concentration of 125 nM 11-deoxycorticosterone for the CYP11B2 assay or 250 nM 11-deoxycortisol for the CYP11B1 assay). The reaction was carried out for 3 hours at 37° C., 5% CO2 and was stopped by harvesting the supernatants. The amount of product in the supernatant (aldosterone for CYP11B2 assay and cortisol for the CYP11B1 assay) was measured using HTRF-based assay kit (Aldosterone HTRF-CisBio #64ALDPEB, Cortisol HTRF-CisBio #63IDC002-CORT). IC50s for the inhibitor were determined by plotting the amount of product formed against the concentration of inhibitor using sigmoidal dose-response curve (variable slope) fit in GraphPad.

Assay [2] addresses human CYP11B1 (Homo sapiens (Human), UniProt P15538). In words: V79-Human-CYP11B1 cell assay. In kind it is cell-based. As to conditions: V79 cells stably expressing human CYP11B1; 250 nM 11-deoxycortisol substrate; cortisol by HTRF. On the procedure:
as §1
(TR-FRET usually uses a lanthanide donor and a delayed reading to cut background.)

Chain of human CYP11B2 (P19099 25-503): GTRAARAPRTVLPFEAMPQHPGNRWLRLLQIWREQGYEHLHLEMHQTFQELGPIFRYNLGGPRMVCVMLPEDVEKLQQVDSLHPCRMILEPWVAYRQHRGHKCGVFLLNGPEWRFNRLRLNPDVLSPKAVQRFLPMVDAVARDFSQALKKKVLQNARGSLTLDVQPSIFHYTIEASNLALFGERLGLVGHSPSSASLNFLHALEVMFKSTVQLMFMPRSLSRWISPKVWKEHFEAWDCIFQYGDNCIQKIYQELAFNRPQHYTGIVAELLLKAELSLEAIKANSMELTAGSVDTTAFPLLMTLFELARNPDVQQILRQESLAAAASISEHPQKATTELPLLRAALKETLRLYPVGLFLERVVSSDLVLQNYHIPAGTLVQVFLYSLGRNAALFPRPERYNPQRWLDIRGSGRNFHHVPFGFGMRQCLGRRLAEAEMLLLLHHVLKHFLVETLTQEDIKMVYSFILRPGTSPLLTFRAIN
Chain of human CYP11B1 (P15538 25-503): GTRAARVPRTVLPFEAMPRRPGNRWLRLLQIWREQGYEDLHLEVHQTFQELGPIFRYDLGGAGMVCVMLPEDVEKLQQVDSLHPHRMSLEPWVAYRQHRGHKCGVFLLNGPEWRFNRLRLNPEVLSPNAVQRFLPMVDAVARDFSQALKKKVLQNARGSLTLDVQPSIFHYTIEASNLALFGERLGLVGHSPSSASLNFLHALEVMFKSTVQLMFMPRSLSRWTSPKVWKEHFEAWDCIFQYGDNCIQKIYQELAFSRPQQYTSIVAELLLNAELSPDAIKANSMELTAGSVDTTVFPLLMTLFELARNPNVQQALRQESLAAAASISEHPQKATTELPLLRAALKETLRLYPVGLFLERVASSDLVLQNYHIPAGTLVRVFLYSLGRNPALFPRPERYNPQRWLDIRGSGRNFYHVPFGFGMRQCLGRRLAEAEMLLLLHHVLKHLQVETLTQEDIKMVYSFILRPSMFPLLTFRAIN

As for `c1ccc2c(-c3nc4ccccn4n3)cncc2c1` [Example 5, 4-([1,2,4]triazolo[1,5-a]pyridin-2-yl)isoquinoline], the results for the half-inhibitory concentration (IC50) in assay [1] and in assay [2] were 138 nM and above 8330 nM, respectively.
For `Clc1cccn2nc(-c3cncc4ccccc34)nc12` [Example 7, 4-(8-chloro-[1,2,4]triazolo[1,5-a]pyridin-2-yl)isoquinoline], the IC50 in assay [1] was 171 nM; in assay [2], above 8330 nM.
In the same order, the values of `CC(C)(O)c1cncc(-c2nc3ccc(F)cn3n2)c1` [Example 12, 2-(5-(6-fluoro-[1,2,4]triazolo[1,5-a]pyridin-2-yl)pyridin-3-yl)propan-2-ol] are 1070 nM and above 8330 nM.
The like results for `Cc1cccc2nc(-c3cncc(Br)c3)nn12` [Example 13, 2-(5-bromopyridin-3-yl)-5-methyl-[1,2,4] triazolo[1,5-a]pyridine] were, in that order, 884 nM and above 8330 nM.
The like results for `Fc1cc(F)c2nc(-c3cncc4ccccc34)nn2c1` [Example 18, 4-(6,8-difluoro-[1,2,4]triazolo[1,5-a]pyridin-2-yl)isoquinoline] were, in that order, 126 nM and above 8330 nM.
`Fc1ccn2nc(-c3cncc4ccccc34)nc2c1` [Example 20, 4-(7-fluoro-[1,2,4]triazolo[1,5-a]pyridin-2-yl)isoquinoline]: the values for the half-inhibitory concentration (IC50) in assay [1] and in assay [2] were 22 nM and 1080 nM, respectively.
The like results for `Fc1ccc2nc(-c3cncc4ccccc34)nn2c1` [Example 21, 4-(6-fluoro-[1,2,4]triazolo[1,5-a]pyridin-2-yl)isoquinoline] were, in that order, 46 nM and 2150 nM.
